Measured values reported in ChEMBL document CHEMBL1158870, “Antitumor agents. 180. Chemical Studies and cytotoxic evaluation of cumingianosides and cumindysoside A, antileukemic triterpene glucosides with a 14,18-cycloapotirucallane skeleton” (1997).

Key:
[1] = Cytotoxicity against human breast cancer cells by SRB assay; type: functional; conditions: Cancer cell lines
MDA-MB-231 = assay: Cytotoxicity against human MDA-MB-231 cells by SRB assay; type: functional
IGROV-1 = assay: Cytotoxicity against human IGROV1 cells by SRB assay; type: functional
Malme-3M = assay: Cytotoxicity against human MALME-3M cells by SRB assay; type: functional
SR = assay: Cytotoxicity against human SR cells by SRB assay; type: functional
A498 = assay: Cytotoxicity against human A498 cells by SRB assay; type: functional
OVCAR-3 = assay: Cytotoxicity against human OVCAR-3 cells by SRB assay; type: functional
[2] = Cytotoxicity against human Hs 578T cells by SRB assay; type: functional
HCT-116 = assay: Cytotoxicity against human HCT116 cells by SRB assay; type: functional
CAKI-1 = assay: Cytotoxicity against human Caki1 cells by SRB assay; type: functional
[3] = Cytotoxicity against human HL60(TB) cells by SRB assay; type: functional, HL-60(TB); conditions: HL-60
U-251 = assay: Cytotoxicity against human U251 cells by SRB assay; type: functional
UO-31 = assay: Cytotoxicity against human UO31 cells by SRB assay; type: functional
NCI-H522 = assay: Cytotoxicity against human NCI-H522 cells by SRB assay; type: functional
SF-268 = assay: Cytotoxicity against human SF268 cells by SRB assay; type: functional
HOP-92 = assay: Cytotoxicity against human HOP92 cells by SRB assay; type: functional
OVCAR-5 = assay: Cytotoxicity against human OVCAR5 cells by SRB assay; type: functional
[4] = Cytotoxicity against human CNS cancer cells by SRB assay; type: functional; conditions: Cancer cell lines
[5] = Cytotoxicity against human renal cancer cells by SRB assay; type: functional; conditions: Cancer cell lines
NSCLC = assay: Cytotoxicity against human NSCLC cells by SRB assay; type: functional
MOLT-4 = assay: Cytotoxicity against human MOLT4 cells by SRB assay; type: functional
SK-MEL-5 = assay: Cytotoxicity against human SK-MEL-5 cells by SRB assay; type: functional
HCC 2998 = assay: Cytotoxicity against human HCC2998 cells by SRB assay; type: functional
[6] = Cytotoxicity against human ovarian cancer cells by SRB assay; type: functional; conditions: Cancer cell lines
SK-OV-3 = assay: Cytotoxicity against human SKOV3 cells by SRB assay; type: functional
HOP-62 = assay: Cytotoxicity against human HOP62 cells by SRB assay; type: functional
OVCAR-8 = assay: Cytotoxicity against human OVCAR8 cells by SRB assay; type: functional
EKVX = assay: Cytotoxicity against human EKVX cells by SRB assay; type: functional
RPMI-8226 = assay: Cytotoxicity against human RPMI8226 cells by SRB assay; type: functional
SW-620 = assay: Cytotoxicity against human SW620 cells by SRB assay; type: functional
SF-295 = assay: Cytotoxicity against human SF295 cells by SRB assay; type: functional
K562 = assay: Cytotoxicity against human K562 cells by SRB assay; type: functional
NCI-H226 = assay: Cytotoxicity against human NCI-H226 cells by SRB assay; type: functional
SK-MEL-28 = assay: Cytotoxicity against human SK-MEL-28 cells by SRB assay; type: functional
RXF 393 = assay: Cytotoxicity against human RXF393 cells by SRB assay; type: functional
CCRF-CEM = assay: Cytotoxicity against human CCRF-CEM cells by SRB assay; type: functional
MDA-N = assay: Cytotoxicity against human MDA-N cells by SRB assay; type: functional
[7] = Cytotoxicity against human Colon cancer cells by SRB assay; type: functional; conditions: Cancer cell lines
PC-3 = assay: Cytotoxicity against human PC3 cells by SRB assay; type: functional
LOX IMVI = assay: Cytotoxicity against human LOXIMVI cells by SRB assay; type: functional
NCI-H23 = assay: Cytotoxicity against human NCI-H23 cells by SRB assay; type: functional
MDA-MB-435 = assay: Cytotoxicity against human MDA-MB-435 cells by SRB assay; type: functional
T47D = assay: Cytotoxicity against human T47D cells by SRB assay; type: functional
[8] = Cytotoxicity against human MCF7/ADR cells by SRB assay; type: functional; conditions: NCI/ADR-RES
SN12C = assay: Cytotoxicity against human SN12C cells by SRB assay; type: functional
SNB-75 = assay: Cytotoxicity against human SNB75 cells by SRB assay; type: functional
HT-29 = assay: Cytotoxicity against human HT29 cells by SRB assay; type: functional
OVCAR-4 = assay: Cytotoxicity against human OVCAR4 cells by SRB assay; type: functional
[9] = Cytotoxicity against human 786-O cells by SRB assay; type: functional; conditions: 786-0
Leukemia cell = assay: Cytotoxicity against human Leukemia cells by SRB assay; type: functional
UACC-62 = assay: Cytotoxicity against human UACC62 cells by SRB assay; type: functional
NCI-H322M = assay: Cytotoxicity against human NCI-H322M cells by SRB assay; type: functional
DU-145 = assay: Cytotoxicity against human DU145 cells by SRB assay; type: functional
ACHN = assay: Cytotoxicity against human ACHN cells by SRB assay; type: functional
M14 = assay: Cytotoxicity against human M14 cells by SRB assay; type: functional
BT-549 = assay: Cytotoxicity against human BT549 cells by SRB assay; type: functional
HCT-15 = assay: Cytotoxicity against human HCT15 cells by SRB assay; type: functional
[10] = Cytotoxicity against human melanoma cells by SRB assay; type: functional; conditions: Melanoma cell
COLO 205 = assay: Cytotoxicity against human COLO205 cells by SRB assay; type: functional
SNB-19 = assay: Cytotoxicity against human SNB19 cells by SRB assay; type: functional
MCF7 = assay: Cytotoxicity against human MCF7 cells by SRB assay; type: functional
[11] = Cytotoxicity against human prostate cancer cells by SRB assay; type: functional; conditions: Cancer cell lines
KM12 = assay: Cytotoxicity against human KM12 cells by SRB assay; type: functional
A549 = assay: Cytotoxicity against human A549 cells by SRB assay; type: functional
UACC-257 = assay: Cytotoxicity against human UACC257 cells by SRB assay; type: functional
SK-MEL-2 = assay: Cytotoxicity against human SK-MEL-2 cells by SRB assay; type: functional
NCI-H460 = assay: Cytotoxicity against human NCI-H460 cells by SRB assay; type: functional

Work on `C=C1[C@@H](O)C[C@@]23CC[C@@H]4[C@@]5(C)CC[C@@H](OC(C)=O)C(C)(C)[C@@H]5C[C@@H](O[C@@H]5O[C@H](COC(C)=O)[C@@H](O)[C@H](O)[C@H]5O)[C@@]4(C)C2=CC[C@H]3[C@H]1C` yielded a TGI [1] of 21.5 µM, a GI50 (MDA-MB-231) of 7.76 µM and a GI50 (IGROV-1) of 4.79 µM. It also gave a GI50 (Malme-3M) of 11.5 µM, a GI50 (SR) of 2.34 µM and a GI50 (A498) of 14.8 µM. It also gave a GI50 (OVCAR-3) of 2.82 µM, a GI50 [2] of 4.9 µM and a GI50 (HCT-116) of 3.47 µM. It also gave a TGI (HCT-116) of 9.8 µM, a GI50 (CAKI-1) of 13.2 µM and a GI50 [3] of 2.75 µM. It also gave a GI50 (U-251) of 2.82 µM, a GI50 (UO-31) of 13.8 µM and a GI50 (NCI-H522) of 7.41 µM. The GI50 (SF-268) was 6.61 µM, the GI50 (HOP-92) was 10.7 µM and the GI50 (OVCAR-5) was 2.09 µM. It also gave a TGI [4] of 16.9 µM, a TGI [5] of 22.1 µM and a TGI (NSCLC) of 23.4 µM. The GI50 (MOLT-4) was 1.95 µM, the GI50 (SK-MEL-5) was 6.03 µM and the GI50 (HCC 2998) was 1.58 µM. The TGI (HCC 2998) was 3.5 µM, the TGI [6] was 17.6 µM and the GI50 (SK-OV-3) was 11.7 µM. It also gave a GI50 (HOP-62) of 12.9 µM, a GI50 (OVCAR-8) of 6.61 µM and a GI50 (EKVX) of 10 µM. The GI50 (RPMI-8226) was 2.95 µM, the GI50 (SW-620) was 7.24 µM and the TGI (SW-620) was 24.2 µM. It also gave a GI50 (SF-295) of 4.17 µM, a GI50 (K562) of 3.09 µM and a GI50 (NCI-H226) of 6.03 µM. The GI50 (SK-MEL-28) was 8.32 µM, the GI50 (RXF 393) was 3.98 µM and the GI50 (CCRF-CEM) was 2.57 µM. The GI50 (MDA-N) was 5.13 µM, the TGI [7] was 11.3 µM and the GI50 (PC-3) was 3.47 µM. The GI50 (LOX IMVI) was 3.98 µM, the GI50 (NCI-H23) was 9.55 µM and the GI50 (MDA-MB-435) was 4.79 µM. For the same compound, the GI50 (T47D) was 7.24 µM, the GI50 [8] was 17.8 µM and the GI50 (SN12C) was 6.03 µM. For the same compound, the GI50 (SNB-75) was 2.19 µM, the GI50 (HT-29) was 2.34 µM and the TGI (HT-29) was 5.9 µM. For the same compound, the GI50 (OVCAR-4) was 3.98 µM, the GI50 [9] was 5.25 µM and the TGI (Leukemia cell) was 8.7 µM. For the same compound, the GI50 (UACC-62) was 7.08 µM, the GI50 (NCI-H322M) was 12.9 µM and the GI50 (DU-145) was 10.7 µM. It also gave a GI50 (ACHN) of 7.08 µM, a GI50 (M14) of 3.55 µM and a GI50 (BT-549) of 11.5 µM. It also gave a GI50 (HCT-15) of 11.5 µM, a TGI (HCT-15) of 27.5 µM and a TGI [10] of 19.1 µM. It also gave a GI50 (COLO 205) of 1.78 µM, a TGI (COLO 205) of 3.3 µM and a GI50 (SNB-19) of 5.5 µM. For the same compound, the GI50 (MCF7) was 1.51 µM, the TGI [11] was 18.3 µM and the GI50 (KM12) was 1.55 µM. It also gave a TGI (KM12) of 4.8 µM, a GI50 (A549) of 4.79 µM and a GI50 (UACC-257) of 10.2 µM. It also gave a GI50 (SK-MEL-2) of 2.09 µM and a GI50 (NCI-H460) of 4.27 µM.

Work on `COC(C)(C)[C@@H](O)[C@H](O)C[C@H](C)[C@@H]1CC[C@]23C[C@]12CC[C@@H]1[C@@]2(C)CC[C@@H](OC(C)=O)C(C)(C)[C@@H]2C[C@@H](O[C@@H]2O[C@H](COC(C)=O)[C@@H](O)[C@H](O)[C@H]2O)[C@]13C` [CUMINGIANOSIDE C] yielded a TGI (HCT-116) of 8.7 µM, a TGI [4] of 11.6 µM and a TGI [5] of 13.2 µM. The TGI (NSCLC) was 12.4 µM, the TGI (HCC 2998) was 4.9 µM and the TGI [6] was 12 µM. For the same compound, the TGI (SW-620) was 13.7 µM, the TGI [7] was 7.9 µM and the TGI (HT-29) was 2.5 µM. The TGI (Leukemia cell) was 11.3 µM, the TGI (HCT-15) was 6.3 µM and the TGI [10] was 12.6 µM. The TGI (COLO 205) was 11.3 µM and the TGI (KM12) was 7.6 µM.

Work on `C=C(C)[C@@H](O)[C@H](O)C[C@H](C)[C@@H]1CC[C@]23C[C@]12CC[C@@H]1[C@@]2(C)CC[C@@H](OC(C)=O)C(C)(C)[C@@H]2C[C@@H](O[C@@H]2O[C@H](COC(C)=O)[C@@H](O)[C@H](O)[C@H]2O)[C@]13C` [CUMINGIANOSIDE D] yielded a TGI (HCT-116) of 9.27 µM, a TGI [4] of 10.9 µM and a TGI [5] of 12.7 µM. It also gave a TGI (NSCLC) of 11.7 µM, a TGI (HCC 2998) of 12.4 µM and a TGI [6] of 12.7 µM. It also gave a TGI (SW-620) of 12 µM, a TGI [7] of 11 µM and a TGI (HT-29) of 8.77 µM. The TGI (Leukemia cell) was 8.2 µM, the TGI (HCT-15) was 10.4 µM and the TGI [10] was 12.2 µM. For the same compound, the TGI (COLO 205) was 12.6 µM and the TGI (KM12) was 11.3 µM.
